We go through 2 compounds from US7163933B2, “Treating agent for Paget's disease of bone” (Teijin Limited, priority 2002, dated 2007).

In test [1] the test system is bone marrow cells from patients with Paget's disease of bone. The test can be described thus: Osteoclast formation in bone marrow cultures from patients with Paget's disease of bone (23C6-positive cells with three or more nuclei). The format is cell-based, human. The source says: (§1) Mononuclear cells were fractionated from bone marrow cells of healthy normal adults and patients with Paget's disease of bone according to a method of Kurihara et al. (Endocrinology, vol. 126, 2733–2741 (1990) and Journal of Clinical Investigation, vol. 105, 606–614 (2000)). Briefly, bone marrow cells were obtained from normal adults and patients with Paget's disease of bone, a mononuclear cell fraction was collected by Hypaque-Ficoll density gradient centrifugation, the cell fraction was washed with α-Minimal Essential Media (α-MEM, GIBCO BRL; Grand Island, N.Y.) 3 times, and the cells were dispersed in α-MEM containing 10% fetal bovine serum (GIBCO BRL; Grand Island, N.Y.). This mononuclear cell suspension was seeded on 100-mm tissue culture plates, the culture plates were kept for 90 minutes at 37° C. in a 5% CO2-air atmosphere, and the non-adherent cells were collected.
Mononuclear cells were fractionated from bone marrow cells of patients with Paget's disease of bone as described in Example 1. The collected mononuclear cells were dispersed in an α-MEM culture medium containing 20% horse serum in such a manner that the concentration became 10^6 cells/ml, and seeded on a 96-well multiplate at 100 μl/well. The suppression effect of Compound 11 (23S isomer) on osteoclast formation in the bone marrow cells of patients with Paget's disease of bone induced by 1α,25-dihydroxyvitamin D3 was evaluated as follows. Into each well, 1α,25-dihydroxyvitamin D3 of various concentrations, Compound 11 (23S isomer) of various concentrations, or a combination of 10^−10 M 1α,25-dihydroxyvitamin D3 and Compound 11 (23S isomer) of various concentrations was added. The culture medium was replaced two times a week, and culture was continued for 3 weeks at 37° C. in an incubator of 5% CO2-air. After the culture, the culture product was subjected to 23C6 antibody (antibody; gift from Dr. Michael A. Horton, Rayne Institute, Bone and Mineral Center, London, United Kingdom) alkaline phosphatase dyeing (VECTASTAIN-ABC-AP kit; Vector Laboratories, Burlingame, Calif.), and the nuclei were dyed with methyl green. Cells that were positive to 23C6 antibody and had three or more nuclei were determined as osteoclast, and the number of all osteoclasts in each well was counted.

For another test, the system named is TAFII-17 gene. The test can be described thus: TAFII-17 gene expression (RT-PCR, band density vs β-actin) in bone marrow mononuclear cells from patients with Paget's disease of bone. The format is cell-based, human.
From the text: as §1
Mononuclear cells were prepared from bone marrow collected from patients with Paget's disease of bone according to a method described in Example 1. The collected mononuclear cells were dispersed in an α-MEM culture medium containing 20% horse serum in such a manner that the concentration became 3.3×10^5 cells/ml, seeded on 35-mm tissue culture plates at 3 ml/plate, and cultured for 12 hr at 37° C. in an incubator of 5% CO2-air in the presence of 10^−10 M 1α, 25-dihydroxyvitamin D3 and 10^−8 M Compound 11 (23S isomer) of the present invention singly, or in the presence of 10^−10 M 1α, 25-dihydroxyvitamin D3 and 10^−8 M Compound 11 (23S isomer) together. Subsequently, the cells were collected by centrifuge, RNA was extracted according to a routine procedure after the addition of 1 ml of an RNAzol B solution, and the resulting RNA was converted into cDNA by using a reverse transcriptase. The TAFII-17 gene was subjected to PCR reaction of 35 cycles each consisting of 1 min at 94° C., 1 min at 55° C. and 1 min at 72° C. using 5′-[…]-3′ (SEQ ID NO: 14) (sense) and 5′-[…]-3′(SEQ ID NO: 15) (antisense) as the primers. The PCR products were fractionated by electrophoresis using 2% agarose gel. As a house-keeping gene, β-actin was subjected to PCR reaction in the same manner, and the PCR products were fractionated by electrophoresis using 2% agarose gel. The densities of the bands of the TAFII-17 gene and the β-actin gene were determined by an image analyzer.

The test system of test [2] is human 25-hydroxyvitamin D3-24-hydroxylase gene promoter. The test can be described thus: 25-hydroxyvitamin D3-24-hydroxylase (24-OHase) luciferase reporter assay in NIH3T3 cells. It counts as cell-based, mouse. The source says:
The promoter region of the human 25-hydroxyvitamin D3-24-hydroxylase gene(−186/−5), which contains two vitamin D responsive elements (VDRE) was cloned into a luciferase reporter vector pGL3-Basic Vector (Promega; Madison, Wis.). This plasmid construct was cotransfected with a β-galactosidase expression plasmid into pcDNA3.1-Neo-hTAFII-17-CDS (Example 2) or its empty vector-transfected mouse fibroblastic cell line NIH3T3 cells by lipofection (LipofectAMINE; GIBCO BRL; Grand Island, N.Y.). Sixteen hours after the transfection, vehicle (0.1% ethanol) or 1α,25-(OH)2D3 (10^−10 to 10^−8 M) was added. Forty-eight hours later, the cells were harvested in the cell lysate solution provided with the luciferase assay kit (Promega; Madison, Wis.). The luciferase activities of the cell lysates were measured with the luciferase assay kit according to the manufacturer's instructions and was standardized with the β-galactosidase activities of the same cell lysates determined with a β-galactosidase enzyme assay system (Promega; Madison, Wis.).

The mark [3] stands for this setting: test substance alone at 10^−7 M, 3 weeks culture.
The mark [4] stands for this setting: test substance alone at 10^−8 M, 3 weeks culture.
Setting [5] is: test substance alone at 10^−9 M, 3 weeks culture.
Where [6] appears, read: test substance alone at 10^−10 M, 3 weeks culture.
Where [7] appears, read: test substance alone at 10^−11 M, 3 weeks culture.

SMILES strings stand for the structures.

Consider `C=C1C[C@H](C[C@H](C)[C@H]2CC[C@H]3/C(=C/C=C4/C[C@@H](O)C[C@H](O)C4=C)CCC[C@]23C)OC1=O` (single isomer, unassigned) [Compound 11 (23S isomer)], for which the “osteoclast formation (average number of cells ± S.D.)” value in test [1] (10^−6 M compound 11 (23S isomer) + 10^−10 M 1α,25-dihydroxyvitamin D3, 3 weeks culture) is on record as 1 ± 1 cells; in test [1] (10^−7 M compound 11 (23S isomer) + 10^−10 M 1α,25-dihydroxyvitamin D3, 3 weeks culture), 14 ± 1 cells; in test [1] (10^−8 M compound 11 (23S isomer) + 10^−10 M 1α,25-dihydroxyvitamin D3, 3 weeks culture) it was 63 ± 5 cells; in test [1] (10^−9 M compound 11 (23S isomer) + 10^−10 M 1α,25-dihydroxyvitamin D3, 3 weeks culture) it was 125 ± 5 cells; in test [1] (10^−10 M compound 11 (23S isomer) + 10^−10 M 1α,25-dihydroxyvitamin D3, 3 weeks culture), 155 ± 6 cells; in test [1] (10^−11 M compound 11 (23S isomer) + 10^−10 M 1α,25-dihydroxyvitamin D3, 3 weeks culture), 170 ± 13 cells. Besides, the “osteoclast formation (average number of cells ± S.D.)” value in test [1] (test substance alone at 10^−6 M, 3 weeks culture) came out at 1 ± 1 cells; in test [1] (setting [3]), 8 ± 2 cells; in test [1] (setting [4]), 9 ± 3 cells; in test [1] (setting [5]), 16 ± 2 cells; in test [1] (setting [6]), 20 ± 4 cells; in test [1] (setting [7]) it was 29 ± 5 cells. Besides, the “osteoclast formation induced by 10^−10 M 1α,25-dihydroxyvitamin D3 (in words)” value in test [1] (Compound 11 (23S isomer) added simultaneously, range of 10^−11 M to 10^−6 M) is on record as “suppressed”. Further, the “osteoclast formation (in words)” value is “did not caused any osteoclast formation” in test [1] (Compound 11 (23S isomer) alone at 10^−6 M) and “rather inhibited the osteoclast formation” in test [1] (Compound 11 (23S isomer) by itself). Also, the “expression of TAFII-17 gene (in words)” value in the test on TAFII-17 gene (10^−8 M Compound 11 (23S isomer) added alone) was “remarkably suppressed”. In addition, the TAFII-17/β-actin is recorded as 6.82 arbitrary units with TAFII-17 gene (10^−8 M Compound 11 (23S isomer) singly, 12 hr culture) and 46.89 arbitrary units in the test with TAFII-17 gene (10^−8 M Compound 11 (23S isomer) together with 10^−10 M 1α,25-(OH)2D3, 12 hr culture). The “expression of TAFII-17 gene accelerated by 10^−10 M 1α,25-(OH)2D3 (in words)” value in the test on TAFII-17 gene (addition of 10^−8 M Compound 11 (23S isomer)) is on record as “strongly suppressed”.
For `C=C1/C(=C\C=C2/CCC[C@]3(C)[C@@H]([C@H](C)CCCC(C)(C)O)CC[C@@H]23)C[C@@H](O)C[C@@H]1O` [1α,25-dihydroxyvitamin D3, reference compound], in test [1] (1α,25-dihydroxyvitamin D3 alone), the “concentration exhibiting almost the maximum activity on osteoclast formation” value was ~10^−9 M. Also, in test [1] (1α,25-dihydroxyvitamin D3 alone, range of 10^−11 M to 10^−7 M), the “osteoclast formation (in words)” value is reported as “stimulated osteoclast formation concentration-dependently”. Moreover, the “osteoclast formation (average number of cells ± S.D.)” value came to 205 ± 6 cells in test [1] (setting [3]); 206 ± 16 cells in test [1] (setting [4]); 211 ± 25 cells in test [1] (setting [5]); 180 ± 15 cells in test [1] (setting [6]); 134 ± 14 cells in test [1] (setting [7]). The “expression of 25-hydroxyvitamin D3-24-hydroxylase gene (reporter, in words)” value is “extremely accelerated” in test [2] (TAFII-17 gene-transfected NIH3T3 cells, 10^−8 M 1α,25-(OH)2D3, 48 h); “accelerated” in test [2] (TAFII-17 gene-transfected NIH3T3 cells, 10^−9 M 1α,25-(OH)2D3, 48 h); “detected” in test [2] (empty vector-transfected NIH3T3 cells, 10^−8 M 1α,25-(OH)2D3, 48 h); “hardly detected” in test [2] (empty vector-transfected NIH3T3 cells, 10^−9 M 1α,25-(OH)2D3, 48 h). The compound further returned a TAFII-17/β-actin in the test on TAFII-17 gene (10^−10 M 1α,25-(OH)2D3 singly, 12 hr culture) of 100 arbitrary units.
